# Source: the supplement of paper PMC10307832
# Columns and labels:
# Assay in all cases: relative viability (nuclei count vs DMSO), 5 days (fraction); higher = more cells survive
# NCI-H647 = test system: NCI-H647
# Summary of the method: (§1)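 Dosing by pin tool came one day after lung cancer cell lines were seeded in 1536-well plates, using either one drug or a fixed anchor-drug dose plus five library-drug doses (not always all listed) in √10 steps. After 5 days, nuclei were counted on 4× images. Relative viability is treated-well nuclei count divided by vehicle-well nuclei count, and values are medians of duplicate plates.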
# RERF-LC-KJ = test system: RERF-LC-KJ
# Summary of the method: as §1
# NCI-H596 = test system: NCI-H596
# Summary of the method: as §1
# LCLC-103H = test system: LCLC-103H
# Summary of the method: as §1
# COR-L23 = test system: COR-L23
# Summary of the method: as §1
# HOP-62 = test system: HOP-62
# Summary of the method: as §1
# A-427 = test system: A-427
# Summary of the method: as §1
# NCI-H1975 = test system: NCI-H1975
# Summary of the method: as §1
# NCI-H2085 = test system: NCI-H2085
# Summary of the method: as §1
# NCI-H1563 = test system: NCI-H1563
# Summary of the method: as §1
# LXF-289 = test system: LXF-289
# Summary of the method: as §1
# COR-L 105 = test system: COR-L 105
# Summary of the method: as §1
# NCI-H1395 = test system: NCI-H1395
# Summary of the method: as §1
# NCI-H2087 = test system: NCI-H2087
# Summary of the method: as §1
# NCI-H1651 = test system: NCI-H1651
# Summary of the method: as §1
# NCI-H2023 = test system: NCI-H2023
# Summary of the method: as §1
# NCI-H3122 = test system: NCI-H3122
# Summary of the method: as §1
# NCI-H2170 = test system: NCI-H2170
# Summary of the method: as §1
# CAL-12T = test system: CAL-12T
# Summary of the method: as §1
# NCI-H650 = test system: NCI-H650
# Summary of the method: as §1
# SK-MES-1 = test system: SK-MES-1
# Summary of the method: as §1
smiles,measurement,setting,value
COCC1(CO)C(=O)C2CCN1CC2 (stereo not drawn) [PRIMA-1MET] + CS(=O)(=O)N1CCN(Cc2cc3nc(-c4cccc5[nH]ncc45)nc(N4CCOCC4)c3s2)CC1 [Pictilisib] (partner 1 µM),relative viability,NCI-H647; first compound 0.2 µM,0.523
same,relative viability,NCI-H647; first compound 0.6325 µM,0.384
same,relative viability,NCI-H647; first compound 6.325 µM,0.412
same,relative viability,NCI-H647; first compound 20 µM,0.165
same,relative viability,RERF-LC-KJ; first compound 0.2 µM,0.538
same,relative viability,RERF-LC-KJ; first compound 0.6325 µM,0.595
same,relative viability,RERF-LC-KJ; first compound 2 µM,0.64
same,relative viability,RERF-LC-KJ; first compound 6.325 µM,0.623
same,relative viability,RERF-LC-KJ; first compound 20 µM,0.624
same,relative viability,NCI-H596; first compound 0.2 µM,0.406
same,relative viability,NCI-H596; first compound 0.6325 µM,0.389
same,relative viability,NCI-H596; first compound 2 µM,0.335
same,relative viability,NCI-H596; first compound 6.325 µM,0.379
same,relative viability,NCI-H596; first compound 20 µM,0.368
same,relative viability,LCLC-103H; first compound 0.2 µM,0.612
same,relative viability,LCLC-103H; first compound 0.6325 µM,0.583
same,relative viability,LCLC-103H; first compound 2 µM,0.457
same,relative viability,LCLC-103H; first compound 6.325 µM,0.583
same,relative viability,LCLC-103H; first compound 20 µM,0.478
same,relative viability,COR-L23; first compound 0.2 µM,0.77
same,relative viability,COR-L23; first compound 0.6325 µM,0.76
same,relative viability,COR-L23; first compound 2 µM,0.765
same,relative viability,COR-L23; first compound 6.325 µM,0.786
same,relative viability,COR-L23; first compound 20 µM,0.0196
same,relative viability,HOP-62; first compound 0.2 µM,0.442
same,relative viability,HOP-62; first compound 0.6325 µM,0.465
same,relative viability,HOP-62; first compound 2 µM,0.368
same,relative viability,HOP-62; first compound 6.325 µM,0.734
same,relative viability,HOP-62; first compound 20 µM,0.392
same,relative viability,A-427; first compound 0.2 µM,0.255
same,relative viability,A-427; first compound 0.6325 µM,0.53
same,relative viability,A-427; first compound 2 µM,0.528
same,relative viability,A-427; first compound 6.325 µM,0.378
same,relative viability,A-427; first compound 20 µM,0.622
same,relative viability,NCI-H1975; first compound 0.2 µM,0.294
same,relative viability,NCI-H1975; first compound 0.6325 µM,0.291
same,relative viability,NCI-H1975; first compound 2 µM,0.27
same,relative viability,NCI-H1975; first compound 6.325 µM,0.311
same,relative viability,NCI-H1975; first compound 20 µM,0.248
same,relative viability,NCI-H2085; first compound 0.2 µM,0.44
same,relative viability,NCI-H2085; first compound 0.6325 µM,0.419
same,relative viability,NCI-H2085; first compound 2 µM,0.33
same,relative viability,NCI-H2085; first compound 6.325 µM,0.4
same,relative viability,NCI-H2085; first compound 20 µM,0.359
same,relative viability,NCI-H1563; first compound 0.2 µM,0.645
same,relative viability,NCI-H1563; first compound 0.6325 µM,0.696
same,relative viability,NCI-H1563; first compound 2 µM,0.632
same,relative viability,NCI-H1563; first compound 6.325 µM,0.629
same,relative viability,NCI-H1563; first compound 20 µM,0.345
same,relative viability,LXF-289; first compound 0.2 µM,0.691
same,relative viability,LXF-289; first compound 0.6325 µM,0.743
same,relative viability,LXF-289; first compound 2 µM,0.531
same,relative viability,LXF-289; first compound 6.325 µM,0.717
same,relative viability,LXF-289; first compound 20 µM,0.761
same,relative viability,COR-L 105; first compound 0.2 µM,0.387
same,relative viability,COR-L 105; first compound 0.6325 µM,0.346
same,relative viability,COR-L 105; first compound 2 µM,0.324
same,relative viability,COR-L 105; first compound 6.325 µM,0.245
same,relative viability,COR-L 105; first compound 20 µM,0.2
same,relative viability,NCI-H1395; first compound 0.2 µM,0.613
same,relative viability,NCI-H1395; first compound 0.6325 µM,0.458
same,relative viability,NCI-H1395; first compound 2 µM,0.602
same,relative viability,NCI-H1395; first compound 6.325 µM,0.518
same,relative viability,NCI-H1395; first compound 20 µM,0.383
same,relative viability,NCI-H2087; first compound 0.2 µM,0.413
same,relative viability,NCI-H2087; first compound 0.6325 µM,0.848
same,relative viability,NCI-H2087; first compound 2 µM,0.966
same,relative viability,NCI-H2087; first compound 6.325 µM,0.642
same,relative viability,NCI-H2087; first compound 20 µM,0.659
same,relative viability,NCI-H1651; first compound 0.2 µM,0.662
same,relative viability,NCI-H1651; first compound 0.6325 µM,0.583
same,relative viability,NCI-H1651; first compound 2 µM,0.505
same,relative viability,NCI-H1651; first compound 6.325 µM,0.596
same,relative viability,NCI-H1651; first compound 20 µM,0.44
same,relative viability,NCI-H2023; first compound 0.2 µM,0.205
same,relative viability,NCI-H2023; first compound 0.6325 µM,0.196
same,relative viability,NCI-H2023; first compound 2 µM,0.222
same,relative viability,NCI-H2023; first compound 6.325 µM,0.229
same,relative viability,NCI-H2023; first compound 20 µM,0.221
same,relative viability,NCI-H3122; first compound 0.2 µM,0.288
same,relative viability,NCI-H3122; first compound 0.6325 µM,0.647
same,relative viability,NCI-H3122; first compound 2 µM,0.659
same,relative viability,NCI-H3122; first compound 6.325 µM,0.429
same,relative viability,NCI-H3122; first compound 20 µM,0.52
same,relative viability,NCI-H2170; first compound 0.2 µM,0.312
same,relative viability,NCI-H2170; first compound 0.6325 µM,0.276
same,relative viability,NCI-H2170; first compound 2 µM,0.283
same,relative viability,NCI-H2170; first compound 6.325 µM,0.336
same,relative viability,NCI-H2170; first compound 20 µM,0.297
same,relative viability,CAL-12T; first compound 0.2 µM,0.486
same,relative viability,CAL-12T; first compound 0.6325 µM,0.421
same,relative viability,CAL-12T; first compound 2 µM,0.315
same,relative viability,CAL-12T; first compound 6.325 µM,0.332
same,relative viability,CAL-12T; first compound 20 µM,0.0828
same,relative viability,NCI-H650; first compound 0.2 µM,1.14
same,relative viability,NCI-H650; first compound 2 µM,0.867
same,relative viability,NCI-H650; first compound 6.325 µM,1.06
same,relative viability,NCI-H650; first compound 20 µM,0.111
same,relative viability,SK-MES-1; first compound 0.2 µM,0.449
same,relative viability,SK-MES-1; first compound 0.6325 µM,0.384
same,relative viability,SK-MES-1; first compound 2 µM,0.359
same,relative viability,SK-MES-1; first compound 6.325 µM,0.381
same,relative viability,SK-MES-1; first compound 20 µM,0.349
